In US4444786A, “Carbamate derivatives, insecticidal, miticidal or nematocidal compositions containing the same, and process for preparing the same” (priority 1981, dated 1984):

How the values were obtained:
noxious insects = details: known, background; cited from earlier work
[1] = system: green rice leafhopper (Nephotettix cincticeps); experiment: Test Example 2: mortality of female adults of green rice leafhopper on paddy rice, three days; type: in vivo; details: 72 h, 3 days; for mortality at 200 ppm: 200 ppm active ingredient; for mortality at 400 ppm: 400 ppm active ingredient; for mortality at 800 ppm: 800 ppm active ingredient
Description: An emulsion of specified concentration was prepared from a 50% wettable powder of the compound to be tested and applied to the leaves of paddy rice (one-month-old seedlings) planted in a pot to fully wet the leaves. After air-drying the emulsion, the pot was covered with a net cage, into which 10 female adults of green rice leafhopper (Nephotettix cincticeps) were released. The compound of each specified concentration was tested on two pots.

warm-blooded animals = details: known, background; cited from earlier work
[2] = Test Example 5: acute toxicity by oral administration against male mice; details: mouse, in vivo, seventh day, Litchfield-Wilcoxon method
Description: The compound to be tested was evaluated in terms of acute toxicity by oral administration against male mice.

[3] = system: tobacco cutworm (Spodoptera litura); experiment: Test Example 1: mortality of third-instar larvae of tobacco cutworm on cabbage, three days; type: in vivo; details: 72 h, 3 days; for mortality at 100 ppm: 100 ppm active ingredient; for mortality at 200 ppm: 200 ppm active ingredient; for mortality at 400 ppm: 400 ppm active ingredient
Description: Ten third-instar larvae of tobacco cutworm (Spodoptera litura) were placed on a cabbage (one-month-old seedlings) planted in a pot, and a 50% emulsion of the compound to be tested was diluted to a specified concentration and applied to the leaves of the plant to fully wet them. The test compound of each specified concentration was tested on two pots.

[4] = system: house fly (Musca domestica); experiment: Test Example 4: local application to house fly, LD50 by Probit method; type: in vivo; details: topical, 24 hours
Description: The compound to be tested was dissolved in a predetermined amount of acetone. The solution was diluted to various concentrations and locally applied to house fly (Musca domestica).

[5] = system: southern root-knot nematode (Meloidogyne incognita); experiment: Test Example 3: formation of nodules on tomato roots in soil contaminated with nematode larvae, one month; type: in vivo
Source text: Granules containing 10% of the compound to be tested were mixed, in a specified amount, with soil contaminated with larvae of southern root-knot nematode (Meloidogyne incognita), and tomato seedlings were immediately transplanted in the soil. One month later, the roots of the plant were checked for the formation of nodules. Two test areas, 2×2 m^2 each, were used for the compound as applied in each specified amount.

| Compound | insecticidal activity (noxious insects) | mortality at 200 ppm [1] [%] | mortality at 400 ppm [1] [%] | mortality at 800 ppm [1] [%] | toxicity to warm-blooded animals (warm-blooded animals) | LD50 at 168 h [2] [mg/kg] | mortality at 100 ppm [3] [%] | LD50 [4] [mg/kg] | mortality at 200 ppm [3] [%] | mortality at 400 ppm [3] [%] | Degree of Formation of Nodules ([5]; granules (10%) applied at 10 kg/10 a) | Degree of Formation of Nodules ([5]; granules (10%) applied at 25 kg/10 a) | Degree of Formation of Nodules ([5]; granules (10%) applied at 50 kg/10 a) |
| --- | --- | --- | --- | --- | --- | --- | --- | --- | --- | --- | --- | --- | --- |
| CNC(=O)ON=C(C)SC [Control*, S-methyl N-[(methylcarbamoyl)oxy]thioacetamidate, reference compound] | high insecticidal activity | 90 | 100 | 100 | high toxicity to warm-blooded animals | 16 | 80 | 6.8 | – | – | – | – | – |
| CCOC(=O)CCN(SN(C)C(=O)ON=C(C)SC)C(C)C [Example 1, S-methyl N-[{N-methyl-N-(N-isopropyl-N-ethoxycarbonylethylaminosulfenyl)carbamoyl}oxy]thioacetamidate] | – | 60 | 80 | 100 | – | 150 | 85 | 16 | 90 | 100 | – | – | – |
| CCOC(=O)CCN(CCC(=O)OCC)SN(C)C(=O)ON=C(C)SC [Example 2, S-methyl N-[{N-methyl-N-(N,N-bis(ethoxycarbonylethyl)aminosulfenyl)carbamoyl}oxy]thioacetamidate] | – | 60 | 95 | 100 | – | 300 | 75 | 23 | 100 | 100 | – | – | – |
| CCCCN(CC(=O)OCC)SN(C)C(=O)ON=C(C)SC [Example 3] | – | 80 | 100 | 100 | – | 170 | 100 | 8.5 | 100 | 100 | – | – | – |
| CCCN(CCC(=O)OCC)SN(C)C(=O)ON=C(C)SC [Example 4] | – | 95 | 100 | 100 | – | 150 | 100 | 11 | 100 | 100 | – | – | – |
| CCCCN(CCC(=O)OC)SN(C)C(=O)ON=C(C)SC [Example 5] | – | 95 | 100 | 100 | – | 150 | 100 | 5 | 100 | 100 | – | – | – |
| CCOC(=O)CCN(CC(C)C)SN(C)C(=O)ON=C(C)SC [Example 6] | – | 80 | 90 | 100 | – | 170 | 70 | 7.6 | 95 | 100 | – | – | – |
| CCOC(=O)CCN(SN(C)C(=O)ON=C(C)SC)C1CCCCC1 [Example 7] | – | 65 | 100 | 100 | – | 200 | 95 | 18.3 | 100 | 100 | – | – | – |
| CCOC(=O)CCN(Cc1ccccc1)SN(C)C(=O)ON=C(C)SC [Example 8] | – | 75 | 100 | 100 | – | 250 | 100 | 35.2 | 100 | 100 | – | – | – |
| CCOC(=O)CCN(SN(C)C(=O)ON=C(C)SC)c1ccc(Cl)cc1 [Example 9] | – | 70 | 100 | 100 | – | 250 | 50 | 14 | 70 | 100 | – | – | – |
| CCOC(=O)CCN(SN(C)C(=O)ON=C(C)SC)c1cccc(C)c1 [Example 10] | – | 90 | 100 | 100 | – | 250 | 60 | 29.5 | 85 | 100 | – | – | – |
| CCOC(=O)CN(CC(=O)OCC)SN(C)C(=O)ON=C(C)SC [Example 11] | – | 60 | 80 | 100 | – | 300 | 45 | 47.3 | 75 | 100 | – | – | – |
| CCOC(=O)CN(SN(C)C(=O)ON=C(C)SC)C(=O)OCC [Example 12] | – | 80 | 100 | 100 | – | 200 | 100 | 28.7 | 100 | 100 | – | – | – |
| CCOC(=O)CN(SN(C)C(=O)ON=C(C)SC)C(=O)CC [Example 13] | – | 75 | 100 | 100 | – | 200 | 75 | 14.4 | 90 | 100 | – | – | – |
| CCOC(=O)CN(SN(C)C(=O)ON=C(C)SC)S(=O)(=O)c1ccc(C)cc1 [Example 14] | – | 80 | 100 | 100 | – | 250 | 60 | 33.3 | 80 | 100 | – | – | – |
| CCCCOC(=O)CCN(SN(C)C(=O)ON=C(C)SC)C(C)C [Example 15] | – | 80 | 100 | 100 | – | 280 | 75 | 21.3 | 95 | 100 | – | – | – |
| CCCCCCN(CCC(=O)OCC)SN(C)C(=O)ON=C(C)SC [Example 16] | – | 75 | 100 | 100 | – | 300 | 70 | 32.5 | 80 | 100 | – | – | – |
| CCCCC(CC)COC(=O)CCN(SN(C)C(=O)ON=C(C)SC)C(C)C (stereo not drawn) [Example 17] | – | 75 | 90 | 100 | – | 300 | 50 | 42.4 | 70 | 100 | – | – | – |
| CCCCCCCCN(CCC(=O)OCC)SN(C)C(=O)ON=C(C)SC [Example 18] | – | 75 | 90 | 100 | – | 270 | 60 | 35.6 | 75 | 100 | – | – | – |
| CCOC(=O)CCN(SN(C)C(=O)ON=C(C)SC)c1ccc(OC)cc1 [Example 19] | – | 80 | 100 | 100 | – | 250 | 75 | 20.1 | 80 | 100 | – | – | – |
| CCOC(=O)CCN(Cc1ccc(Cl)cc1)SN(C)C(=O)ON=C(C)SC [Example 20] | – | 80 | 100 | 100 | – | 250 | 75 | 18.9 | 80 | 100 | – | – | – |
| Bis(2-chloro-1-methylethyl)ethane | – | – | – | – | – | – | – | – | – | – | 4 (75 to 100%) | 4 (75 to 100%) | 2 (25 to 49%) |
